# Assay results: patent publication US9598433B2, “Hepatitis C virus inhibitors” (BRISTOL-MYERS SQUIBB COMPANY, priority 2012, dated 2017)
# Where two headings read alike, the source gives them in different places.
# Tests used:
# [1] = test system: HCV genotype 1a (H77 strain) replicon in HUH-7 cells; assay: HCV replicon luciferase reporter assay, genotype 1a; format: cell-based; conditions: Hepatitis C virus, 72 h, genotype 1a replicon, 3 days incubation
# Procedure, shortened: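 Stable HUH-7 line carrying luciferase-reporter genotype 1a (H77) replicon with adaptive NS3 P1496L and NS5A S2204I mutations; 3.0×10^3 cells/well in 4% FCS, 0.5% DMSO, twenty-point 3-fold titration, 3 days at 37 °C. Renilla luminescence with 7.5 μM EnduRen; EC50 by four-parameter logistic fit; CC50 by multiplexed Cell Titer-Blue.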
# [2] = test system: HCV genotype 1b (Con1) replicon in HUH-7 cells; assay: HCV replicon luciferase reporter assay, genotype 1b; format: cell-based; conditions: Hepatitis C virus, 72 h, genotype 1b replicon, 3 days incubation
# Procedure, shortened: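 The HUH-7 cells stably carried a genotype 1b Con1 replicon with a Renilla luciferase reporter and the S1179I adaptive mutation. Luminescence was read after 2 h with 7.5 μM EnduRen, and EC50s came from four-parameter logistic fits.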
SMILES,EC50 ([1]; read-out: LE_1a (EC50)) [nM],"EC50 ([1]; read-out: LE_1a (EC50, range)) [nM]",EC50 ([2]; read-out: LE_1b (EC50)) [nM],"EC50 ([2]; read-out: LE_1b (EC50, range)) [nM]"
"COc1cc(F)cc2c(O[C@@H]3C[C@H]4C(=O)N[C@]5(C(=O)NS(=O)(=O)C6(C)CC6)C[C@H]5/C=C\CC[C@@H](C)O[C@@H](C)[C@H](NC(=O)OC(C)(C)C(F)(F)F)C(=O)N4C3)nccc12 [Compound 2017, 1,1,1-trifluoro-2-methylpropan-2-yl ((2R,6S,7S,9R,13aS,14aR,16aS,Z)-2-((7-fluoro-5-methoxyisoquinolin-1-yl)oxy)-7,9-dimethyl-14a-(((1-methylcyclopropyl)sulfonyl)carbamoyl)-5,16-dioxo-2,3,5,6,7,9,10,11,13a,14,14a,15,16,16a-tetradecahydro-1H-cyclopropa[i]pyrrolo[1,2-e][1,5,8]oxadiazacyclopentadecin-6-yl)carbamate]",0.89,0.51 to 1,0.42,0.1 to 0.5
"C[C@@H]1CC/C=C\[C@@H]2C[C@@]2(C(=O)NS(=O)(=O)C2(C)CC2)NC(=O)[C@@H]2C[C@@H](Oc3nccc4c5c(ccc34)OCCO5)CN2C(=O)[C@@H](NC(=O)OC(C)(C)C(F)(F)F)[C@H](C)O1 [Compound 2009, 1,1,1-trifluoro-2-methylpropan-2-yl ((2R,6S,7S,9R,13aS,14aR,16aS,Z)-2-((2,3-dihydro-[1,4]dioxino[2,3-f]isoquinolin-7-yl)oxy)-7,9-dimethyl-14a-(((1-methylcyclopropyl)sulfonyl)carbamoyl)-5,16-dioxo-2,3,5,6,7,9,10,11,13a,14,14a,15,16,16a-tetradecahydro-1H-cyclopropa[i]pyrrolo[1,2-e][1,5,8]oxadiazacyclopentadecin-6-yl)carbamate]",,1.01 to 5,,0.51 to 1
"CCOc1cc2ccnc(O[C@@H]3C[C@H]4C(=O)N[C@]5(C(=O)NS(=O)(=O)C6(C)CC6)C[C@H]5/C=C\CC[C@@H](C)O[C@@H](CC)[C@H](NC(=O)OC(C)(C)C(F)F)C(=O)N4C3)c2cc1F [Compound 2615, 1,1-difluoro-2-methylpropan-2-yl ((2R,6S,7S,9R,13 aS,14aR,16aS,Z)-2-((6-ethoxy-7-fluoroisoquinolin-1-yl)oxy)-7-ethyl-9-methyl-14a-(((1-methylcyclopropyl)sulfonyl)carbamoyl)-5,16-dioxo-2,3,5,6,7,9,10,11,13a,14,14a,15,16,16a-tetradecahydro-1H-cyclopropa[i]pyrrolo[1,2-e][1,5,8]oxadiazacyclopentadecin-6-yl)carbamate]",,0.51 to 1,,0.51 to 1
"COc1ccc2c(O[C@@H]3C[C@H]4C(=O)N[C@]5(C(=O)NS(=O)(=O)C6CC6)C[C@H]5/C=C\CO[C@@H](C)C[C@@H](C)[C@H](NC(=O)OC(C)(C)C)C(=O)N4C3)nccc2c1 [Compound 2603, tert-butyl ((2R,6S,7R,9S,13a5,14aR,16aS,Z)-14a-((cyclopropylsulfonyl)carbamoyl)-2-((6-methoxyisoquinolin-1-yl)oxy)-7,9-dimethyl-5,16-dioxo-2,3,5,6,7,8,9,11,13a,14,14a,15,16,16a-tetradecahydro-1H-cyclopropa[e]pyrrolo[2,1-i][1,7,10]oxadiazacyclopentadecin-6-yl)carbamate]",9.08,5.01 to 35,6.64,5.01 to 35
"CCOc1cc2ccnc(O[C@@H]3C[C@H]4C(=O)N[C@]5(C(=O)NS(=O)(=O)C6(C)CC6)C[C@H]5/C=C\CC[C@@H](C)O[C@@H](CC)[C@H](NC(=O)OC(C)(C)C(C)(F)F)C(=O)N4C3)c2cc1F [Compound 2607, 3,3-difluoro-2-methylbutan-2-yl ((2R,6S,7S,9R,13 aS,14aR,16aS,Z)-2-((6-ethoxy-7-fluoroisoquinolin-1-yl)oxy)-7-ethyl-9-methyl-14a-(((1-methylcyclopropyl)sulfonyl)carbamoyl)-5,16-dioxo-2,3,5,6,7,9,10,11,13a,14,14a,15,16,16a-tetradecahydro-1H-cyclopropa[i]pyrrolo[1,2-e][1,5,8]oxadiazacyclopentadecin-6-yl)carbamate]",,0.51 to 1,,0.1 to 0.5
"COc1cc(F)cc2c(O[C@@H]3C[C@H]4C(=O)N[C@]5(C(=O)NS(=O)(=O)C6(CF)CC6)C[C@H]5/C=C\CC[C@@H](C)O[C@@H](C)[C@H](NC(=O)OC(C)(C)C(F)(F)F)C(=O)N4C3)nccc12 [Compound 2020, 1,1,1-trifluoro-2-methylpropan-2-yl ((2R,6S,7S,9R,13aS,14aR,16aS,Z)-2-((7-fluoro-5-methoxyisoquinolin-1-yl)oxy)-14a-(((1-(fluoromethyl)cyclopropyl)sulfonyl)carbamoyl)-7,9-dimethyl-5,16-dioxo-2,3,5,6,7,9,10,11,13a,14,14a,15,16,16a-tetradecahydro-1H-cyclopropa[i]pyrrolo[1,2-e][1,5,8]oxadiazacyclopentadecin-6-yl)carbamate]",,1.01 to 5,,0.51 to 1
"CC[C@@H]1O[C@H](C)CC/C=C\[C@@H]2C[C@@]2(C(=O)NS(=O)(=O)C2(C)CC2)NC(=O)[C@@H]2C[C@@H](Oc3nc4c(c5cc(OC)c(F)cc35)CCCO4)CN2C(=O)[C@H]1NC(=O)OC(C)(C)C(F)(F)F [Compound 1017, 1,1,1-trifluoro-2-methylpropan-2-yl ((2R,6S,7S,9R,13aS,14aR,16aS,Z)-7-ethyl-2-((8-fluoro-9-methoxy-2,3-dihydro-1H-pyrano[2,3-c]isoquinolin-6-yl)oxy)-9-methyl-14a-(((1-methylcyclopropyl)sulfonyl)carbamoyl)-5,16-dioxo-2,3,5,6,7,9,10,11,13a,14,14a,15,16,16a-tetradecahydro-1H-cyclopropa[i]pyrrolo[1,2-e][1,5,8]oxadiazacyclopentadecin-6-yl)carbamate]",,0.51 to 1,,0.51 to 1
CC[C@@H]1O[C@H](C)CC/C=C\[C@@H]2C[C@@]2(C(=O)NS(=O)(=O)C2(CF)CC2)NC(=O)[C@@H]2C[C@@H](Oc3nccc4cc(OC)c(F)cc34)CN2C(=O)[C@H]1NC(=O)OC(C)(C)C(F)(F)F [Compound 1012],,1.01 to 5,,1.01 to 5
CC[C@@H]1O[C@H](C)CC/C=C\[C@@H]2C[C@@]2(C(=O)NS(=O)(=O)C2(C)CC2)NC(=O)[C@@H]2C[C@@H](Oc3nccc4cc(OC)c(F)cc34)CN2C(=O)[C@H]1NC(=O)OC(C)(C)C(F)F [Compound 2616],,1.01 to 5,,1.01 to 5
"CC[C@@H]1O[C@H](C)CC/C=C\[C@@H]2C[C@@]2(C(=O)NS(=O)(=O)C2(C)CC2)NC(=O)[C@@H]2C[C@@H](Oc3nc4c(c5cc(OC)ccc35)CCCO4)CN2C(=O)[C@H]1NC(=O)OC(C)(C)C(F)F [Compound 2311, 1,1-difluoro-2-methylpropan-2-yl ((2R,6S,7S,9R,13aS,14aR,16aS,Z)-7-ethyl-2-((9-methoxy-2,3-dihydro-1H-pyrano[2,3-c]isoquinolin-6-yl)oxy)-9-methyl-14a-(((1-methylcyclopropyl)sulfonyl)carbamoyl)-5,16-dioxo-2,3,5,6,7,9,10,11,13a,14,14a,15,16,16a-tetradecahydro-1H-cyclopropa[i]pyrrolo[1,2-e][1,5,8]oxadiazacyclopentadecin-6-yl)carbamate]",,0.1 to 0.5,,0.1 to 0.5
"C[C@@H]1CC/C=C\[C@@H]2C[C@@]2(C(=O)NS(=O)(=O)C2(C)CC2)NC(=O)[C@@H]2C[C@@H](Oc3nccc4c5c(ccc34)OCCO5)CN2C(=O)[C@@H](NC(=O)OC(C)(C)C(C)(F)F)[C@H](C)O1 [Compound 2010, 3,3-difluoro-2-methylbutan-2-yl ((2R,6S,7S,9R,13aS,14aR,16aS,Z)-2-((2,3-dihydro[1,4]dioxino[2,3-f]isoquinolin-7-yl)oxy)-7,9-dimethyl-14a-(((1-methylcyclopropyl)sulfonyl)carbamoyl)-5,16-dioxo-2,3,5,6,7,9,10,11,13a,14,14a,15,16,16a-tetradecahydro-1H-cyclopropa[i]pyrrolo[1,2-e][1,5,8]oxadiazacyclopentadecin-6-yl)carbamate]",,1.01 to 5,,0.51 to 1
"C[C@@H]1CC/C=C\[C@@H]2C[C@@]2(C(=O)NS(=O)(=O)C2(C)CC2)NC(=O)[C@@H]2C[C@@H](Oc3nc4c(c5ccccc35)CCCO4)CN2C(=O)[C@@H](NC(=O)OC(C)(C)C(F)F)[C@H](C)O1 [Compound 2304, 1,1-difluoro-2-methylpropan-2-yl ((2R,6S,7S,9R,13aS,14aR,16aS,Z)-2-((2,3-dihydro-1H-pyrano[2,3-c]isoquinolin-6-yl)oxy)-7,9-dimethyl-14a-(((1-methylcyclopropyl)sulfonyl)carbamoyl)-5,16-dioxo-2,3,5,6,7,9,10,11,13a,14,14a,15,16,16a-tetradecahydro-1H-cyclopropa[i]pyrrolo[1,2-e][1,5,8]oxadiazacyclopentadecin-6-yl)carbamate]",0.49,0.1 to 0.5,0.64,0.51 to 1
"COc1ccc2c(O[C@@H]3C[C@H]4C(=O)N[C@]5(C(=O)NS(=O)(=O)C6(C)CC6)C[C@H]5/C=C\CC[C@@H](C)O[C@@H](C)[C@H](NC(=O)OC(C)(C)C(F)F)C(=O)N4C3)nc3c(c2c1)CCCO3 [Compound 2310, 1,1-difluoro-2-methylpropan-2-yl ((2R,6S,7S,9R,13aS,14aR,16aS,Z)-2-((9-methoxy-2,3-dihydro-1H-pyrano[2,3-c]isoquinolin-6-yl)oxy)-7,9-dimethyl-14a-(((1-methylcyclopropyl)sulfonyl)carbamoyl)-5,16-dioxo-2,3,5,6,7,9,10,11,13a,14,14a,15,16,16a-tetradecahydro-1H-cyclopropa[i]pyrrolo[1,2-e][1,5,8]oxadiazacyclopentadecin-6-yl)carbamate]",,0.1 to 0.5,,0.1 to 0.5
